For assay [1], the target named is T1, F508delCFTR (Homo sapiens, UniProt P13569, DEL508-508).
T1 construct: expressed in transfected cells; host or cells: CFBE41o- human lung-derived epithelial cells (CFBE41o-F508delCFTR-HRP), doxycycline-inducible
Description: Cell Surface Expression-Horse Radish Peroxidase (CSE-HRP) assay, test compound without co-corrector.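 For Emax: percent of on-plate 2 µM positive control corrector response over DMSO.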 It is filed as cell-based. The following applies: for Emax: maximum at any tested concentration, normalized to positive control, without co-corrector; for EC50: test compound without co-corrector. The gist of the method: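 CFBE41o- cells expressing F508delCFTR with HRP in the fourth exofacial loop, induced with 0.5 μg/mL doxycycline for 72 h at 37° C, then exposed to compound alone for 18-24 h at 33° C, 8-point 3-fold series from 20 μM. Surface HRP read by luminol luminescence, normalized to positive corrector control versus DMSO; EC50 from variable-slope sigmoidal fit of three replicate plates.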

Assay [2] addresses T1, F508delCFTR. Description: Cell Surface Expression-Horse Radish Peroxidase (CSE-HRP) assay, test compound with co-corrector.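 For Maximum % activity (with co-corrector): percent of 2 µM positive control corrector over DMSO; co-corrector is that same compound.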 The conditions noted are these: with 2 μM co-corrector; for Maximum % activity (with co-corrector): maximum at any tested concentration, normalized to positive control. Format: cell-based. Put shortly: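 CFBE41o- cells expressing F508delCFTR with HRP in the fourth exofacial loop, induced with 0.5 μg/mL doxycycline for 72 h, then treated 18-24 h at 33° C. with compound (8 points, top 20 μM, 3-fold) plus 2 μM co-corrector. Surface HRP read by luminol luminescence; activity normalised to positive control, EC50 from variable-slope sigmoidal fit.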

T1 sequence (P13569 with tags, fused parts or gaps DEL508-508): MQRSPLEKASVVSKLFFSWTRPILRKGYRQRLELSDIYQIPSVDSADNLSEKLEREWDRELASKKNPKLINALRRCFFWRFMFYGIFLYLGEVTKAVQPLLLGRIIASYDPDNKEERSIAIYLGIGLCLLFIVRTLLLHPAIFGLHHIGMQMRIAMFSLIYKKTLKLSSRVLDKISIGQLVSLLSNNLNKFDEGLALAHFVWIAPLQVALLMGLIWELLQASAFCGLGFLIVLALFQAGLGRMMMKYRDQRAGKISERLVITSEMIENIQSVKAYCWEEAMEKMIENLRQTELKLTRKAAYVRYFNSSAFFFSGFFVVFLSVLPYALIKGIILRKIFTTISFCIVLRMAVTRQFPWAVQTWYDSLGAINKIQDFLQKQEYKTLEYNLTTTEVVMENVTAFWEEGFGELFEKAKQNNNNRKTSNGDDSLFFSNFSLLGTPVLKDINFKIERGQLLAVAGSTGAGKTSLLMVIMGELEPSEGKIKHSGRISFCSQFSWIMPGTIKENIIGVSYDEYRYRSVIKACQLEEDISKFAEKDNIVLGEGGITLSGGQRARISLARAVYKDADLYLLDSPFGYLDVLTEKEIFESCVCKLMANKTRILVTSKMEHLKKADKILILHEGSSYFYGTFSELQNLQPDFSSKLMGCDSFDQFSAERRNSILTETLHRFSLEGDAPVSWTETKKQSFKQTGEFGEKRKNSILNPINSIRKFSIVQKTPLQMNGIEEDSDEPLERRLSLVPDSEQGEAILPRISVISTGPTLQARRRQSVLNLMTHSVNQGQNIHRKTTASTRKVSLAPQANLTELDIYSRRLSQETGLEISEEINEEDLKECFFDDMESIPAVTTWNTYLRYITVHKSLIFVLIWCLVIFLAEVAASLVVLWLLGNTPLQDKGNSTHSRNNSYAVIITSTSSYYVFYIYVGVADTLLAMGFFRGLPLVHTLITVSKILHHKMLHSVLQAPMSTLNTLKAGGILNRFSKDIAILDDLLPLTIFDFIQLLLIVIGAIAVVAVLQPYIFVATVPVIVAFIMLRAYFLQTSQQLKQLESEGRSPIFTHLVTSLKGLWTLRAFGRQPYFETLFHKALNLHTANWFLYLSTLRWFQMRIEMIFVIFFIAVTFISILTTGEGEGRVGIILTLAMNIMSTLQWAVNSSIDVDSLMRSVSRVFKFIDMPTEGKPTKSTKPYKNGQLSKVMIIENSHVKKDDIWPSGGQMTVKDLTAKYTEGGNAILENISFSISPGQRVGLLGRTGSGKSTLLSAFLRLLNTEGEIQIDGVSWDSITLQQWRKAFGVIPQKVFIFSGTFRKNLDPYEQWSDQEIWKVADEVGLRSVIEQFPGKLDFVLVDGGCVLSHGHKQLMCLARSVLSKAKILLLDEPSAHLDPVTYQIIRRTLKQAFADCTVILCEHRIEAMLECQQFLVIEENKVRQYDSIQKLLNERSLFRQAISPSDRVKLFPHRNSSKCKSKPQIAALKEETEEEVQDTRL

As a reminder, the Emax is the size of the effect at its maximum, as opposed to the concentration needed. What is called EC50 is the midpoint of the concentration-response curve. As for `COc1ccc(C2CCC2)c2c1C(C(=O)NS(=O)(=O)c1cccc3ncn(C)c13)CC2` (stereo not drawn) [Example I-133, 4-cyclobutyl-7-methoxy-N-(1-methyl-1H-benzimidazole-7-sulfonyl)-2,3-dihydro-1H-indene-1-carboxamide], at F508delCFTR [1], the Emax was ≥ 150% and the EC50 was < 3 µM. Moreover, on F508delCFTR [2], the “Maximum % activity (with co-corrector)” value is “+++ (≥350)” and the concentration for a half-maximal effect (EC50) is < 3 µM.

Regarding `COc1ccc(C2CCC2)c2c1C(C(=O)NS(=O)(=O)c1cccn3nccc13)CC2` (stereo not drawn) [Example I-135, 4-cyclobutyl-7-methoxy-N-(pyrazolo[1,5-a]pyridine-4-sulfonyl)-2,3-dihydro-1H-indene-1-carboxamide], on F508delCFTR [1], the maximal response (Emax) was ≥ 150% and the EC50 fell in the range of 3 to 10 µM. At F508delCFTR [2], the “Maximum % activity (with co-corrector)” value is reported as “+++ (≥350)” and the concentration giving a half-maximal response (EC50) was < 3 µM.

On to `COc1ccc(C2CCC2)c2c1C(C(=O)NS(=O)(=O)c1cccn3nccc13)C2` (stereo not drawn) [Example I-136, 2-cyclobutyl-5-methoxy-N-(pyrazolo[1,5-a]pyridine-4-sulfonyl)bicyclo[4.2.0]octa-1,3,5-triene-7-carboxamide], for which, at F508delCFTR [1], the Emax is ≥ 150% and the concentration giving a half-maximal response (EC50) was < 3 µM. At F508delCFTR [2], the “Maximum % activity (with co-corrector)” value was “+++ (≥350)” and the EC50 is < 3 µM.

Regarding `COc1ccc(C2CCCO2)c2c1C(C(=O)NS(=O)(=O)c1cccc3ccccc13)CC2` (stereo not drawn) [Example I-138, 7-methoxy-N-(naphthalene-1-sulfonyl)-4-(oxolan-2-yl)-2,3-dihydro-1H-indene-1-carboxamide], at F508delCFTR [1], the Emax was ≥ 150% and the EC50 fell in the range of 3 to 10 µM. Besides, on F508delCFTR [2], the “Maximum % activity (with co-corrector)” value is recorded as “+++ (≥350)” and the concentration giving a half-maximal response (EC50) is < 3 µM.

For `COCc1ccc(OC)c2c1CCC2C(=O)NS(=O)(=O)c1cccc2ccccc12` (stereo not drawn) [Example I-139, 7-methoxy-4-(methoxymethyl)-N-(naphthalene-1-sulfonyl)-2,3-dihydro-1H-indene-1-carboxamide], at F508delCFTR [1], the Emax is ≥ 150% and the EC50 lay within 3 to 10 µM. At F508delCFTR [2], the “Maximum % activity (with co-corrector)” value is given as “+++ (≥350)” and the concentration giving a half-maximal response (EC50) is < 3 µM.

Turning to `COc1ccc(CC(C)C)c2c1C(C(=O)NS(=O)(=O)c1cccc3ncccc13)CC2` (stereo not drawn) [Example I-140, 7-methoxy-4-(2-methylpropyl)-N-(quinoline-5-sulfonyl)-2,3-dihydro-1H-indene-1-carboxamide], on F508delCFTR [1], the Emax is ≥ 150% and the 50% effective concentration (EC50) was < 3 µM. Moreover, at F508delCFTR [2], the “Maximum % activity (with co-corrector)” value is given as “+++ (≥350)” and the EC50 is < 3 µM.

For `COc1ccc(C2CCC2)c2c1[C@H](C(=O)NS(=O)(=O)c1cccc3cnn(C)c13)C2` [Example I-144, (7R)-2-cyclobutyl-5-methoxy-N-(1-methyl-1H-indazole-7-sulfonyl)bicyclo[4.2.0]octa-1,3,5-triene-7-carboxamide], on F508delCFTR [1], the Emax was ≥ 150% and the EC50 was < 3 µM. Moreover, at F508delCFTR [2], the “Maximum % activity (with co-corrector)” value was “+++ (≥350)” and the EC50 is < 3 µM.

Take `COc1ccc(C2CCC2)c2c1[C@H](C(=O)NS(=O)(=O)c1cccc3c1CCCN3)C2` [Example I-146, (7R)-2-cyclobutyl-5-methoxy-N-(1,2,3,4-tetrahydroquinoline-5-sulfonyl)bicyclo[4.2.0]octa-1,3,5-triene-7-carboxamide]: on F508delCFTR [1], the Emax was ≥ 150% and the half-maximal effective concentration (EC50) was < 3 µM. Moreover, on F508delCFTR [2], the “Maximum % activity (with co-corrector)” value is “+++ (≥350)” and the concentration giving a half-maximal response (EC50) is < 3 µM.

As for `COc1cccc2c1C(C(=O)NS(=O)(=O)c1cccc3ccccc13)CC2(C)C` (stereo not drawn) [Example I-149, 7-methoxy-3,3-dimethyl-N-(naphthalene-1-sulfonyl)-2,3-dihydro-1H-indene-1-carboxamide], at F508delCFTR [1], the maximal effect (Emax) is ≥ 150% and the EC50 is < 3 µM. Moreover, at F508delCFTR [2], the “Maximum % activity (with co-corrector)” value is reported as “+++ (≥350)” and the EC50 is < 3 µM.

Regarding `COc1ccc(C2CCC2)c2c1[C@H](C(=O)NS(=O)(=O)c1cccn3nccc13)CC2` [Example I-151, (1R)-4-cyclobutyl-7-methoxy-N-(pyrazolo[1,5-a]pyridine-4-sulfonyl)-2,3-dihydro-1H-indene-1-carboxamide], on F508delCFTR [1], the Emax is ≥ 150% and the EC50 lay within 3 to 10 µM. On F508delCFTR [2], the “Maximum % activity (with co-corrector)” value is on record as “+++ (≥350)” and the concentration giving a half-maximal response (EC50) was < 3 µM.

As for `COc1cccc2c1C(C(=O)NS(=O)(=O)c1cccc3ncccc13)CC2(C)C` (stereo not drawn) [Example I-152, 7-methoxy-3,3-dimethyl-N-(quinoline-5-sulfonyl)-2,3-dihydro-1H-indene-1-carboxamide], at F508delCFTR [1], the Emax was ≥ 150% and the EC50 is 3 to 10 µM. Besides, on F508delCFTR [2], the “Maximum % activity (with co-corrector)” value is listed as “+++ (≥350)” and the EC50 is < 3 µM.

Regarding `COc1cccc2c1[C@@H](C(=O)NS(=O)(=O)c1cccc3ncccc13)CC2(C)C` [Example I-153, (1S)-7-methoxy-3,3-dimethyl-N-(quinoline-5-sulfonyl)-2,3-dihydro-1H-indene-1-carboxamide], at F508delCFTR [1], the maximal effect (Emax) is ≥ 150% and the EC50 was in the range of 3 to 10 µM. Further, at F508delCFTR [2], the “Maximum % activity (with co-corrector)” value is reported as “+++ (≥350)” and the EC50 is < 3 µM.

Take `COc1cccc2c1[C@H](C(=O)NS(=O)(=O)c1cccc3ncccc13)CC2(C)C` [Example I-154, (1R)-7-methoxy-3,3-dimethyl-N-(quinoline-5-sulfonyl)-2,3-dihydro-1H-indene-1-carboxamide]: on F508delCFTR [1], the Emax was ≥ 150% and the concentration for a half-maximal effect (EC50) lay within 3 to 10 µM. Further, at F508delCFTR [2], the “Maximum % activity (with co-corrector)” value is given as “+++ (≥350)” and the half-maximal effective concentration (EC50) is < 3 µM.

Turning to `COc1ccc(C2CCC2)c2c1[C@H](C(=O)NS(=O)(=O)c1cccc3ncc(C)n13)C2` [Example I-155, (7R)-2-cyclobutyl-5-methoxy-N-(3-methylimidazo[1,2-a]pyridine-5-sulfonyl)bicyclo[4.2.0]octa-1,3,5-triene-7-carboxamide], on F508delCFTR [1], the maximum response (Emax) was ≥ 150% and the concentration for a half-maximal effect (EC50) was 3 to 10 µM. For the same compound, at F508delCFTR [2], the “Maximum % activity (with co-corrector)” value was “+++ (≥350)” and the EC50 is < 3 µM.

For `Cc1ccccc1S(=O)(=O)NC(=O)C1CCc2c(Cl)cccc21` (stereo not drawn) [Example II-3, 4-chloro-N-(2-methylbenzene-1-sulfonyl)-2,3-dihydro-1H-indene-1-carboxamide], at F508delCFTR [1], the Emax lay within 50 to 150% and the EC50 fell in the range of 3 to 10 µM. Also, on F508delCFTR [2], the “Maximum % activity (with co-corrector)” value was “+++ (≥350)” and the EC50 lay within 3 to 10 µM.

At F508delCFTR [1], `Cc1ccccc1S(=O)(=O)NC(=O)C1CCc2c(-c3ccccc3)cccc21` (stereo not drawn) [Example II-36, N-(2-methylbenzene-1-sulfonyl)-4-phenyl-2,3-dihydro-1H-indene-1-carboxamide] came in with an Emax of 50 to 150% and a half-maximal effective concentration (EC50) of 3 to 10 µM. For the same compound, at F508delCFTR [2], the “Maximum % activity (with co-corrector)” value was “+++ (≥350)” and the EC50 was 3 to 10 µM.

`O=C(NS(=O)(=O)c1cccc2ccccc12)C1(CN2CCCC2)CCc2c(Cl)cccc21` (stereo not drawn) [Example II-47, 4-chloro-N-(naphthalene-1-sulfonyl)-1-[(pyrrolidin-1-yl)methyl]-2,3-dihydro-1H-indene-1-carboxamide]: on F508delCFTR [1], the Emax was < 50% and the half-maximal effective concentration (EC50) lay in the range of 3 to 10 µM. Besides, at F508delCFTR [2], the “Maximum % activity (with co-corrector)” value was “++ (≥150 and <350)”; the EC50 was 3 to 10 µM.

In the case of `CCC1(C(=O)NS(=O)(=O)N2CCCc3ccccc32)CCc2c(Cl)cccc21` (stereo not drawn) [Example II-80, 4-chloro-N-(3,4-dihydroquinoline-1(2H)-sulfonyl)-1-ethyl-2,3-dihydro-1H-indene-1-carboxamide], at F508delCFTR [1], the maximal effect (Emax) was < 50% and the 50% effective concentration (EC50) is ≥ 10 µM. Also, on F508delCFTR [2], the “Maximum % activity (with co-corrector)” value is given as “+ (<150)” and the 50% effective concentration (EC50) was ≥ 10 µM.

On F508delCFTR [1], `O=C(NS(=O)(=O)c1cccc2ccccc12)C1(CO)CCc2c(Cl)cccc21` (stereo not drawn) [Example II-81, 4-chloro-1-(hydroxymethyl)-N-(naphthalene-1-sulfonyl)-2,3-dihydro-1H-indene-1-carboxamide] yielded a maximum response (Emax) of 50 to 150% and an EC50 of 3 to 10 µM. Further, at F508delCFTR [2], the “Maximum % activity (with co-corrector)” value is listed as “+++ (≥350)” and the EC50 is < 3 µM.

In the case of `COc1cccc2c1C(C(=O)NS(=O)(=O)c1cccc3ccccc13)CCC2` (stereo not drawn) [Example II-115, 8-methoxy-N-(naphthalene-1-sulfonyl)-1,2,3,4-tetrahydronaphthalene-1-carboxamide], on F508delCFTR [1], the Emax was ≥ 150% and the half-maximal effective concentration (EC50) was in the range of 3 to 10 µM. Further, on F508delCFTR [2], the “Maximum % activity (with co-corrector)” value was “+++ (≥350)” and the 50% effective concentration (EC50) is < 3 µM.

At F508delCFTR [1], `O=C(NS(=O)(=O)c1cccc2ccccc12)C1CCCc2c(Cl)ccc(O)c21` (stereo not drawn) [Example II-128, 5-chloro-8-hydroxy-N-(naphthalene-1-sulfonyl)-1,2,3,4-tetrahydronaphthalene-1-carboxamide] had a maximal response (Emax) of 50 to 150% and a concentration for a half-maximal effect (EC50) of 3 to 10 µM. Further, on F508delCFTR [2], the “Maximum % activity (with co-corrector)” value is “+++ (≥350)” and the half-maximal effective concentration (EC50) is 3 to 10 µM.
